Results: patent publication US12171758B1, “Crystalline salt forms of kappa opioid receptor antagonist and products and methods related thereto” (Neumora Therapeutics, Inc., priority 2023, dated 2024)
Where “and” joins values, the source holds several entries; their conditions need not be identical. Equal entries are not always repeated.

Tests used:
Format in all cases: physicochemical
[1] = Solubility measurement in organic solvents at 25° C. for 24 hours; conditions: for solubility at 24 h: organic solvent or mixture, thermodynamic from solid; for Final form of residual solids: XRPD
[2] = Log D7.6 shake-flask (octanol/phosphate buffer) and Log P calculation; conditions: pH 7.6
Protocol: The actual weight was recorded. The solid was dissolved and diluted to volume with ACN:H2O (1:1, v/v). Stock solutions were prepared in duplicate. The stock solutions were diluted by 50 times by transferring 1 mL of stock solution into 50-mL volumetric flask and then diluted to volume with ACN/water ACN:H2O (1:1, v/v). The 1/50 solutions were used to collect spectra with full wave scanning from 190 nm to 700 nm and absorbance at 235 nm, 270 nm, 290 nm and 365 nm using spectrophotometer with the background subtracted. MEC was then calculated by the following equation: MEC(L mol−1 cm−1)=Absorbance/conc.(mol/L)/Cell length(cm) Log D7.6 Measurements Preparation of Solvents • 0.1 M KH2PO4: 1.36 g of solid KH2PO4 was added into a 100-mL volumetric flask, the solid was dissolved with ultrapure water and diluted to volume. • 0.1 M K2HPO4: 1.73 g of solid K2HPO4 was added into a 100-mL volumetric flask, the solid was dissolved with ultrapure water and diluted to volume. • 100 mL of 0.1 M K2HPO4 solution and 30 mL of 0.1 M KH2PO4 was transferred to a 250-mL beaker and mixed. […] Sample Analysis and Data Calculation • After phase separated, the phases were physically separated, and the concentrations of compounds in each phase were determined by HPLC using the HPLC conditions and parameters in Table 5. • Distribution coefficient, referred to as Dow, was calculated as the concentration of the test compound (both ionized and unionized) in the octanol phase divided by the corresponding concentration in the aqueous phase. Log D7.6 was calculated as an average of the log 10 of Dow based on three runs. […] The mixture was then diluted to volume with purified water, mixed, and pH was measured with a pH meter. • 50 mM citrate pH 4.0 buffer: 65.3 mg of citric acid (monohydrate) and 56.9 mg of sodium citrate (dihydrate) were transferred to a 10-mL volumetric flask, purified water was added to obtain the target volume, and pH was adjust to 4.0. […]

[3] = pKa measurement (Sirius T3, Yasuda-Shedlovsky extrapolation); conditions: Sirius T3, MeOH and KCl solution, pH 2 to 12, Yasuda-Shedlovsky extrapolation
Source text: pKa Measurements pKa measurements were taken using a Sirius T3 instrument in a solvent (MeOH and KCl solution). The process ran from low to high pH (2 to 12). MEC Measurements

[4] = Molar extinction coefficient (MEC) to evaluate photo reactivity; conditions: for MEC Ave.: average of duplicate
Protocol: The actual weight was recorded. The solid was dissolved and diluted to volume with ACN:H2O (1:1, v/v). Stock solutions were prepared in duplicate. The stock solutions were diluted by 50 times by transferring 1 mL of stock solution into 50-mL volumetric flask and then diluted to volume with ACN/water ACN:H2O (1:1, v/v). The 1/50 solutions were used to collect spectra with full wave scanning from 190 nm to 700 nm and absorbance at 235 nm, 270 nm, 290 nm and 365 nm using spectrophotometer with the background subtracted. MEC was then calculated by the following equation: MEC(L mol−1 cm−1)=Absorbance/conc.(mol/L)/Cell length(cm) Log D7.6 Measurements Preparation of Solvents • 0.1 M KH2PO4: 1.36 g of solid KH2PO4 was added into a 100-mL volumetric flask, the solid was dissolved with ultrapure water and diluted to volume. • 0.1 M K2HPO4: 1.73 g of solid K2HPO4 was added into a 100-mL volumetric flask, the solid was dissolved with ultrapure water and diluted to volume. • 100 mL of 0.1 M K2HPO4 solution and 30 mL of 0.1 M KH2PO4 was transferred to a 250-mL beaker and mixed. Then, pH was adjusted 7.4 with the KH2PO4 solution. • Octanol and aqueous buffer were pre-equilibrated by adding 10 mL octanol and 10 mL aqueous buffer into a 20-mL glass vial and agitating the vial for 24 hrs. The mutually saturated octanol and aqueous buffer were then separated after phase separation. Sample Set up • Approximately 1.0 mg solids were weighted into a 3-mL glass vial with 1.0 mL of octanol inside, and dissolution was accelerated by ultrasonication. Then, 1.0 mL of complementary aqueous buffer was added into the vial. Samples were prepared in triplicate. The glass vial was sealed and mixed on a rotary mixer at 25° C. for 24 hrs. Sample Analysis and Data Calculation • After phase separated, the phases were physically separated, and the concentrations of compounds in each phase were determined by HPLC using the HPLC conditions and parameters in Table 5. • Distribution coefficient, referred to as Dow, was calculated as the concentration of the test compound (both ionized and unionized) in the octanol phase divided by the corresponding concentration in the aqueous phase. Log D7.6 was calculated as an average of the log 10 of Dow based on three runs. Solubility/Stability Measurements in pH Buffers Stock Solution Preparation • 0.2 M Hydrochloric Acid: 166 μL of 12 M hydrochloric acid is added into a 10-mL volumetric flask, and the resulting mixture was diluted to volume with purified water and mixed. • 0.2 M Sodium Hydroxide: 80.0 mg of sodium hydroxide was weighted into a 10-mL volumetric flask. The solid was dissolved with volume of purified water, diluted to volume and mixed. • 0.2 M Potassium Chloride: 148.8 mg of potassium chloride was weighted into a 10-mL volumetric flask. The solid was dissolved with volume of purified water, diluted to volume and mixed. • 0.2 M Potassium Phosphate, Monobasic: 271.5 mg of monobasic potassium phosphate (KH2PO4) was weighed into a 10-mL volumetric flask. The solid was dissolved with appropriate volume of purified water, diluted to volume and mixed. • 0.2 M Boric Acid and Potassium Chloride: 124.3 mg of boric acid (H3BO3) and 149.5 mg of potassium chloride (KCl) were mixed into a 10-mL volumetric flask. The solid was dissolved with appropriate volume of purified water, diluted to volume and mixed. pH Buffers Preparation • 50 mM KCl pH 2.0 buffer: 2.5 mL of 0.2 M potassium chloride solution and 0.65 mL of 0.2 M hydrochloric acid solution were transferred to a 10-mL volumetric flask. Purified water is added to the target volume, and pH is adjusted to 2.0. The mixture was then diluted to volume with purified water, mixed, and pH was measured with a pH meter. • 50 mM citrate pH 4.0 buffer: 65.3 mg of citric acid (monohydrate) and 56.9 mg of sodium citrate (dihydrate) were transferred to a 10-mL volumetric flask, purified water was added to obtain the target volume, and pH was adjust to 4.0. […]

Structure (SMILES): CCc1cc(F)c2nc(N3CCC(NC4CCOCC4)CC3)c(-c3nc(C)no3)c(C)c2c1.Cl [HCl salt Type A, 1-(6-ethyl-8-fluoro-4-methyl-3-(3-methyl-1,2,4-oxadiazol-5-yl)quinolin-2-yl)-N-(tetrahydro-2H-pyran-4-yl)piperidin-4-amine hydrochloride]
- solubility at 24 h ([1]; 25 °C, nonpolar solvents (hexane, heptane and toluene)): < 88 µg/mL
- solubility at 24 h ([1]; 25 °C, polar solvents (DMSO and MeOH)): > 24900 µg/mL
- Final form of residual solids ([1]; Acetone, 24 hrs): HCl salt Type A
- Final form of residual solids ([1]; DMSO, 24 hrs, hydrochloride): Amorphous form
- Final form of residual solids ([1]; DMSO, 24 hrs, listed as HCl Salt Type A, hydrochloride): Amorphons
- Final form of residual solids ([1]; EtOAc (printed EtQAc), 24 hrs): HCl salt Type A
- Final form of residual solids ([1]; EtOH, 24 hrs): HCl salt Type A
- Final form of residual solids ([1]; Heptane, 24 hrs): HCl salt Type A
- Final form of residual solids ([1]; Hexane, 24 hrs): HCl salt Type A
- Final form of residual solids ([1]; IPA, 24 hrs): HCl salt Type A
- Final form of residual solids ([1]; MeOH, 24 hrs): HCl salt Type A
- Final form of residual solids ([1]; Toluene, 24 hrs): HCl salt Type A
- solubility at 24 h ([1]; ethanol, EtOH, 25° C., 24 hrs): 3500 µg/mL
- solubility at 24 h ([1]; methanol, MeOH, 25° C., 24 hrs): 24900 µg/mL
- solubility at 24 h ([1]; Acetone, 25° C., 24 hrs): 91 µg/mL
- solubility at 24 h ([1]; DMSO, 25° C., 24 hrs): 33500 µg/mL
- solubility at 24 h ([1]; EtOAc (printed EtQAc), 25° C., 24 hrs): 11 µg/mL
- solubility at 24 h ([1]; Heptane, 25° C., 24 hrs): 0.8 µg/mL
- solubility at 24 h ([1]; Hexane, 25° C., 24 hrs): 0.4 µg/mL
- solubility at 24 h ([1]; Toluene, 25° C., 24 hrs): 8.8 µg/mL
- form change ([1]; organic solvents other than DMSO): No form change
- Average of Log D7.6 ([2]; 24 h): 2.87
- logP ([2]; calculated: Log D7.6 + lg[1+10^(pKa-pH)]): 4
- logD [2]: 2.87
- pKa [3]: 8.68
- MEC Ave. ([4]; 235 nm): 26184.9 L/mol/cm
- MEC ([4]; 235 nm, single solution, ACN:H2O (1:1, v/v), hydrochloride): 26246.5 L/mol/cm and 26123.4 L/mol/cm
- MEC Ave. ([4]; 270 nm): 29997.1 L/mol/cm
- MEC ([4]; 270 nm, single solution, ACN:H2O (1:1, v/v), hydrochloride): 30005.4 L/mol/cm and 29988.9 L/mol/cm
- MEC Ave. ([4]; 290 nm): 13591.0 L/mol/cm
- MEC ([4]; 290 nm, single solution, ACN:H2O (1:1, v/v), hydrochloride): 13615.7 L/mol/cm and 13566.4 L/mol/cm
- MEC Ave. ([4]; 365 nm): 2162.6 L/mol/cm
- MEC ([4]; 365 nm, single solution, ACN:H2O (1:1, v/v), hydrochloride): 2207.7 L/mol/cm and 2117.4 L/mol/cm
- MEC ([4]; at all selected wavelength): > 1000 L/mol/cm
